# pIC50: −log10 of the molar value.
# How the values were obtained:
# [1] = tested on: patients with plaque psoriasis; test: Placebo controlled study in plaque psoriasis, 28 days (sPGA, PASI 50); type: in vivo, human
# Description: A double-blind (sponsor unblinded), randomized, placebo controlled study was conducted in approximately 48 subjects treated for 28 days. Eligibility requirements included: active plaque psoriasis for at least 6 months at screening; body surface area (BSA) of plaque psoriasis of ≥5%; psoriasis area and severity index (PASI) score of ≥5; static physician's global assessment (sPGA) score of ≥3; inadequate response to topical therapies; innovative design allowing rapid progress between doses, with conservative safety assessment. […] Once the 4th subject (block of 3 active 1 PBO) completed 28 days administration without a Grade 3 or higher AE, the next group of 12 subjects initiated treatment with the next highest dose; while the first 4 subjects in this group are treated for 28 days, the 1st group is filled 60 subjects with moderate to severe psoriasis were randomized. […] A sequential method of recruitment was used, increasing from the lowest dose to the highest, each after the completion of 28 days for the first four subjects in the previous dose. The results at 28 days are show in Table 8 (PASI 50 is Psoriasis Area and Severity Index). […] The 5 mg tofacitinib dose is the approved dosage level for RA for safety reasons in the US.
# JAK1 (IL-6) = test: PK derived JAK1 (IL-6) inhibition by dose regimen
# Description: (§1) It is believed that this efficacy/side-effect profile may be due to the QD dose achieving maximal JAK1 signaling (tied to efficacy) with low JAK2 inhibition at the trough, as JAK2 signaling is tied to hematopoiesis. This hypothesis is supported by the PK derived JAK1 (IL-6) and JAK2 (TPO) inhibition data for the compound of Formula at various doses (Table 7).
# JAK2 (TPO) = test: PK derived JAK2 (TPO) inhibition by dose regimen
# Description: as §1
# [2] = target: T1, human JAK1 (a.a. 837-1142) (Homo sapiens, UniProt P23458); test: In vitro JAK kinase assay (HTRF), JAK1; type: biochemical; details: measured at 1 mM ATP
# T1 construct: human JAK1 (a.a. 837-1142); His tag (N); made in house; host or cells: insect cells (baculovirus)
# Description: The compound of Formula I herein was tested for inhibitory activity of JAK targets according to the following in vitro assay described in Park et al., Analytical Biochemistry 1999, 269, 94-104. The catalytic domains of human JAK1 (a.a. 837-1142) and JAK2 (a.a. 828-1132) with an N-terminal His tag were expressed using baculovirus in insect cells and purified. The catalytic activity of JAK1 and JAK2 was assayed by measuring the phosphorylation of a biotinylated peptide. The phosphorylated peptide was detected by homogenous time resolved fluorescence (HTRF). IC50s of compounds were measured for each kinase in the 40 microL reactions that contain the enzyme, ATP and 500 nM peptide in 50 mM Tris (pH 7.8) buffer with 100 mM NaCl, 5 mM DTT, and 0.1 mg/mL (0.01%) BSA. For the 1 mM IC50 measurements, ATP concentration in the reactions was 1 mM. Reactions were carried out at room temperature for 1 hr and then stopped with 20 μL 45 mM EDTA, 300 nM SA-APC, 6 nM Eu-Py20 in assay buffer (Perkin Elmer, Boston, Mass.). Binding to the Europium labeled antibody took place for 40 minutes and HTRF signal was measured on a Fusion plate reader (Perkin Elmer, Boston, Mass.).
# psoriasis = details: 5 mg; 12 weeks; cited from earlier work
# RA = details: 5 mg BID; 3 months; cited from earlier work
# T1 sequence (P23458 849-1154): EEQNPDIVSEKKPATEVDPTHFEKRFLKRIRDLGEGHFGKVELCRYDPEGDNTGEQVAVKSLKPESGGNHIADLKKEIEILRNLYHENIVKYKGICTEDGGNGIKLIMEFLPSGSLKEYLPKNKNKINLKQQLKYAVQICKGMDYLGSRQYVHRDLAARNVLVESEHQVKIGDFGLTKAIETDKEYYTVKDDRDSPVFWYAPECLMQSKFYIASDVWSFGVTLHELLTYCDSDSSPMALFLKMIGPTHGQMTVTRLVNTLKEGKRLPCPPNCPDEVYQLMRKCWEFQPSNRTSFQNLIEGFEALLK
structure (smiles),measurement,setting,value
"N#CCC1(n2cc(-c3ncnc4[nH]ccc34)cn2)CN(C2CCN(C(=O)c3ccnc(C(F)(F)F)c3F)CC2)C1 [compound of Formula I, {1-{1-[3-fluoro-2-(trifluoromethyl)isonicotinoyl]piperidin-4-yl}-3-[4-(7H-pyrrolo[2,3-d]pyrimidin-4-yl)-1H-pyrazol-1-yl]azetidin-3-yl}acetonitrile]",% PASI 50,[1]; 100 mg BID (as headed),22.2%
same,% sPGA (clear or minimal),[1]; 100 mg BID (as headed),11.1%
same,Mean % change sPGA,[1]; 100 mg BID (as headed),−22.2%
same,% PASI 50,[1]; 200 mg BID,44.4%
same,% sPGA (clear or minimal),[1]; 200 mg BID,33.3%
same,Mean % change sPGA,[1]; 200 mg BID,−35.2%
same,% PASI 50,[1]; 200 mg QD,66.7%
same,% sPGA (clear or minimal),[1]; 200 mg QD,22.2%
same,Mean % change sPGA,[1]; 200 mg QD,−29.4%
same,% PASI 50,[1]; 600 mg QD,81.8%
same,% sPGA (clear or minimal),[1]; 600 mg QD,45.5%
same,Mean % change sPGA,[1]; 600 mg QD,−42.4%
same,Average IL-6 inhibition,JAK1 (IL-6); 100 mg BID,44%
same,Trough IL-6 inhibition,JAK1 (IL-6); 100 mg BID,22%
same,Average IL-6 inhibition,JAK1 (IL-6); 100 mg QD,30%
same,Trough IL-6 inhibition,JAK1 (IL-6); 100 mg QD,7%
same,Average IL-6 inhibition,JAK1 (IL-6); 200 mg BID,64%
same,Trough IL-6 inhibition,JAK1 (IL-6); 200 mg BID,52%
same,Average IL-6 inhibition,JAK1 (IL-6); 200 mg QD,39%
same,Trough IL-6 inhibition,JAK1 (IL-6); 200 mg QD,11%
same,Average IL-6 inhibition,JAK1 (IL-6); 300 mg QD,47%
same,Trough IL-6 inhibition,JAK1 (IL-6); 300 mg QD,16%
same,Average IL-6 inhibition,JAK1 (IL-6); 400 mg BID,69%
same,Trough IL-6 inhibition,JAK1 (IL-6); 400 mg BID,56%
same,Average IL-6 inhibition,JAK1 (IL-6); 600 mg QD,61%
same,Trough IL-6 inhibition,JAK1 (IL-6); 600 mg QD,31%
same,Average TPO inhibition,JAK2 (TPO); 100 mg BID,11%
same,Trough TPO inhibition,JAK2 (TPO); 100 mg BID,2%
same,Average TPO inhibition,JAK2 (TPO); 100 mg QD,7%
same,Trough TPO inhibition,JAK2 (TPO); 100 mg QD,<1%
same,Average TPO inhibition,JAK2 (TPO); 200 mg BID,24%
same,Trough TPO inhibition,JAK2 (TPO); 200 mg BID,13%
same,Average TPO inhibition,JAK2 (TPO); 200 mg QD,11%
same,Trough TPO inhibition,JAK2 (TPO); 200 mg QD,<1%
same,Average TPO inhibition,JAK2 (TPO); 300 mg QD,18%
same,Trough TPO inhibition,JAK2 (TPO); 300 mg QD,1%
same,Average TPO inhibition,JAK2 (TPO); 400 mg BID,33%
same,Trough TPO inhibition,JAK2 (TPO); 400 mg BID,16%
same,Average TPO inhibition,JAK2 (TPO); 600 mg QD,36%
same,Trough TPO inhibition,JAK2 (TPO); 600 mg QD,4%
same,pIC50,[2],≥ 8.30
C[C@@H]1CCN(C(=O)CC#N)C[C@@H]1N(C)c1ncnc2[nH]ccc12.O=C(O)CC(O)(CC(=O)O)C(=O)O [tofacitinib citrate],PASI 50 score,psoriasis,65.3%
same,ACR20,RA,59%
same,ACR50,RA,31%
same,ACR70,RA,15%

# Source: patent US10561616B2, “Sustained release dosage forms for a JAK1 inhibitor” (Incyte Corporation, priority 2013, dated 2020)
